Experiments:
[1] = cited from earlier work
[2] = cited from earlier work; remark: listed apart in the source
[3] = test system: patients suffering from ADHD; assay: Clinical Global Impression-Severity scale (CGI-S), Patients A-H; assay type: in vivo, human
Method: In an embodiment, attentiveness is measured using the Clinical Global Impression rating scales to measure symptom severity, treatment response and the efficacy of treatments in treatment studies of patients with mental disorders (Guy, W., 1976). In an embodiment, attentiveness is measure using the Clinical Global Impression-Severity scale (“CGI-S”). In an embodiment, CGI-S is a 7-point scale that requires the clinician to rate the severity of the patient's illness at the time of assessment, relative to the clinician's past experience with patients who have the same diagnosis. Considering total clinical experience, a patient is assessed on severity of mental illness at the time of rating 1, normal, not at all ill; 2, borderline mentally ill; 3, mildly ill; 4, moderately ill; 5, markedly ill; 6, severely ill; or 7, extremely ill. In an embodiment, attentiveness is measured using the Clinical Global Impression-Improvement scale (“CGI-I”). […] In an embodiment, attentiveness is measured using the Clinical Global Impression-Efficacy Index (“CGI-E”).
The age range of the patients was from 6-15 years of age, with a mean age at the start of treatment for ADHD of 8.4 years of age. The mean age at the start of the combination treatment wherein the patient was administered an amphetamine or methylphenidate and an appetite stimulant was 10.3 years of age. The mean treatment period for the eight patients was 1,108 days with a mean of 2.55 ADHD medication changes during the treatment period. Attentiveness in the eight patients was measured using CGI-S and CGI-I. Patients weight and height velocity were measured to identify a difference in weight and height gain prior to and after addition of an appetite stimulant to the treatment for ADHD. Weight velocity was calculated by taking three time points, time 0 upon initiation of medication to treat ADHD, time 1 addition of an appetite stimulant, time 2 the last data point after initiation of combination treatment. The formula to calculate weight velocity for stimulant alone is (weightT1−weight T0)/days from Time 0 to time 1. The formula to calculate weight velocity for combination treatment is (weightT2−weight T1)/days from time 1 to time 2.

[4] = test system: patient suffering from ADHD; assay: Example 1: patient suffering from ADHD treated with and without an appetite stimulant (appetite, blood glucose, attentiveness by CGI-S and CGI-I); assay type: in vivo, human
Description: A patient suffering from ADHD is prescribed and administered an amphetamine to treat ADHD. The patient takes the amphetamine once a day in the morning or afternoon. […] As a result, the glucose level measured in the blood increases as shown in FIG. 1 and the patient's attentiveness recovers as measured by CGI-S and CGI-I. By taking the appetite stimulant during the time when the patient was awake, the patient increased their caloric intake during times when the patient needed to maintain their attentiveness in order to have reasonable cognition and/or social behaviour.

[5] = Example 2 case study: child with ADHD on methylphenidate, then Periactin (height, weight, percentiles, attentiveness); assay type: in vivo, human
Description: Case study: A child was presented by their parents for symptoms of attention deficit hyperactivity disorder. Their size at evaluation was 4′1¾″ and 50 lbs, corresponding to the 81st and 50th percentiles when compared to girls their age. […] At three months following the initiation of treatment for ADHD, the child was 4′2⅞″ and 50½ lbs, corresponding to the 85th and 34rd percentiles when compared to girls their age. At one year, they were 4′4⅜″ and 53 lbs, corresponding to the 84th and 36th percentiles when compared to girls their age. At two years they were 4′5¾″ and 54 lbs, corresponding to the 72nd and 17th percentiles when compared to girls their age. At four years of treatment they were 4′7⅜″ and 59 lbs, corresponding to 70th and 14th percentiles when compared to girls their age. At five years of treatment they were 4′9⅞″ and 64½ lbs, corresponding to 59th and 7th percentiles when compared to girls their age.
The child was then prescribed Periactin at a dosage of 2 mg b.i.d. to attempt to stimulate appetite. The dose was taken in the morning and then in the afternoon. After one year they were 4′11½″ and 72½ lbs, corresponding to 33rd and 5th percentiles when compared to girls their age. The child was then prescribed Periactin at a dose of 4 mg b.i.d. After two months on this dose, they were 5′¼″ and 76 lbs, corresponding to 37th and 8th percentiles when compared to girls their age. At 8 months on this dose, they were 5′½″ and 80 lbs, corresponding to 41st and 8th percentiles when compared to girls their age. At one year on this dose, they were 5′2¾″ and 89½ lbs, corresponding to 51st and 17th percentiles when compared to girls their age. At 18 months on this dose, they were 5′3⅝″ and 99½ lbs, corresponding to 56th and 30th percentiles when compared to girls their age. Additionally, the attentiveness of the child increase following the prescription of Periactin as they increased their food intake during the day.

[6] = Periactin 2 mg b.i.d., after one year
[7] = Periactin 4 mg b.i.d., 8 months
[8] = Periactin 4 mg b.i.d., 18 months
[9] = Periactin 4 mg b.i.d., one year
[10] = Periactin 4 mg b.i.d., two months

In the case of `CN1CCC(=C2c3ccccc3C=Cc3ccccc32)CC1.Cl` [Periactin, 4-(5H-dibenzo[a,d]cyclohepten-5-ylidene)-1-methylpiperidine hydrochloride], the “effect in children suffering from ADHD (anecdotal evidence)” value ([1]; ADHD drug (amphetamine or methylphenidate) plus 4-8 mg cyproheptadine at night (Daviss 2004)) is given as “weight gain and excessive sleep”, the “effect on weight in studies” value ([1]; non-human animals or humans (Orthen-Gambill 1988)) is given as “weight gain” and the side effects ([1]; oral monotherapy for allergy) is given as “weight gain and drowsiness”. The “time to reach peak plasma levels” value ([2]; after administration) was 1 to 3 h, the half-life ([2]; in vivo) was 8 h and the CGI-S score ([3]; Patient A, Periactin 4 mg b.i.d. added to Concerta, FIG. 5) was 3. For the same molecule, the CGI-S score ([3]; Patient B, Focalin XR 15 mg and Periactin 4 mg b.i.d. (remained), FIG. 7) was 3, the CGI-S score ([3]; Patient B, Focalin XR raised to 30 mg at day 1279 with Periactin, FIG. 7) was 2 and the CGI-S score ([3]; Patient C, Concerta 36 mg and Periactin 4 mg b.i.d., FIG. 9) was 4. It also gave a CGI-S score ([3]; Patient D, Concerta 18 mg and Periactin 2 mg in the morning, FIG. 11) of 5, a CGI-S score ([3]; Patient D, Concerta increased to 27 mg with Periactin, FIG. 11) of 4 and a CGI-S score ([3]; Patient E, Focalin XR 20 mg and Periactin 4 mg in the morning) of 4. The CGI-S score ([3]; Patient E, Periactin dosed b.i.d. with Focalin XR) was 3, the CGI-S score ([3]; Patient G, Focalin XR 15 mg and Periactin 4 mg b.i.d., FIG. 17) was 3 and the “CGI-S score versus prior examination” value ([3]; Patient H, Vvyanase 40 mg and Periactin 2 mg b.i.d., day 200, FIG. 19) was “had not changed”. For the same molecule, the “lowering of the CGI-S of a patient by addition of the appetite stimulant” value ([3]; Patients A-H, versus same patient prior to appetite stimulant, FIG. 20, 21) was no less than 1, the “attentiveness as measured by CGI-S and CGI-I” value ([4]; amphetamine and Cyproheptadine once a day) was “recovers” and the appetite ([4]; amphetamine and Cyproheptadine once a day in the morning or afternoon) was “resumes”. The “glucose level measured in the blood” value ([4]; amphetamine and Cyproheptadine once a day, FIG. 1) was “increases”, the “height percentile compared to girls their age” value (shortened to “height percentile”) [5, 6] was 33 percentile and the “weight percentile compared to girls their age” value (“weight percentile” for short) [5, 6] was 5 percentile. For the same molecule, the “height percentile” value [5, 7] was 41 percentile, the weight [5, 7] was 80 lbs and the “weight percentile” value [5, 7] was 8 percentile. For the same molecule, the “height percentile” value [5, 8] was 56 percentile, the “weight percentile” value [5, 8] was 30 percentile and the “height percentile” value [5, 9] was 51 percentile. The “weight percentile” value [5, 9] was 17 percentile, the “height percentile” value [5, 10] was 37 percentile and the weight [5, 10] was 76 lbs. For the same molecule, the “weight percentile” value [5, 10] was 8 percentile and the attentiveness ([5]; following the prescription of Periactin) was “increase”.

Source: patent US10682409B2, “Therapeutic treatment” (priority 2012, dated 2020)
